Read-outs that look alike come from different tables or passages of the source.
Assays:
[1] = system: Clostridium autoethanogenum culture 19630; details: NiCl2 1 mM, fructose 3 g/L
Description: (§1) To determine the cell density in these experiments, the absorbance of the samples was measured at 600 nm (spectrophotometer) and the dry mass determined by extrapolation.
High Performance Liquid Chromatography (HPLC) was used to characterize the level of substrates and products such as for acetate, ethanol, fructose, xylose and pyruvate. HPLC System Agilent 1100 Series. Mobile Phase: 0.0025N Sulphuric Acid. Flow and pressure: 0.800 mL/min. Column: Alltech IOA; Catalog #9648, 150×6.5 mm, particle size 5 μm. Temperature of column: 60° C. Detector: Refractive Index. Temperature of detector: 45° C.
Method for sample preparation: 400 μL of sample+50 μL of 0.15M ZnSO4+50 μL of 0.15M Ba(OH)2 into an Eppendorf tube. Centrifuge 10 min at 12,000 rpm, 4° C. Transfer 200 μL supernatant into an HPLC vial and inject into the HPLC instrument 5 μL.
Sterile 234 ml serum bottles were purged three times with 95% CO, 5% CO2 gas and then evacuated to a vacuum of −5 psi. The serum bottles were charged with 25 ml of LM33 media. NiCl2 solution (to final concentrations of 1 mM) and fructose (3 g/L) were added to the serum bottle which was inoculated with 1 ml of an actively growing Clostridium autoethanogenum culture 19630 from a continuous bioreactor. The headspace of the serum bottle was then filled with CO containing gas to 30 psi (composition 100% CO). The serum bottles were incubated at 37° C. and continuously agitated. Samples were taken at intervals and the headspace was purged and refreshed up to 30 psi following sampling.

[2] = system: Clostridium autoethanogenum culture 19630; details: 54 hours
Description: as §1
Each well was inoculated with 50 μL of an actively growing Clostridium autoethanogenum culture 19630 from a continuous bioreactor. The wells were then mixed thoroughly and 200 ul from each well was added to a 96 well tissue culture plate. The plate was then sealed with a gas permeable sealing film and placed into an anaerobic pressure vessel. This vessel was pressurized to 30 psi with 100% CO gas and placed on an orbital shaker (150 rpm) in an incubated chamber at 37° C. Samples were analyzed at 54 hours after incubation.

[3] = system: Clostridium carboxidivorans DSM15243;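 note: growth tracked as optical density at 600 nm, while ethanol and acetate were quantified in culture samples by HPLC with a refractive index detector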
Description: Growth was monitored by measuring the optical density at 600 nm (OD600nm) and metabolites were detected by HPLC.

[Cl][Ni][Cl] [Nickel, nickel chloride]
Acetic Acid ([1]; 12 h after inoculation): 0.42 g/L | Cell density ([1]; 12 h after inoculation): 0.16 g/L | Ethanol ([1]; 12 h after inoculation): 0.25 g/L | Fructose ([1]; 12 h after inoculation): 2.87 g/L | Acetic Acid ([1]; 18 h after inoculation): 0.48 g/L | Cell density ([1]; 18 h after inoculation): 0.20 g/L | Ethanol ([1]; 18 h after inoculation): 0.61 g/L | Fructose ([1]; 18 h after inoculation): 2.4 g/L | Acetic Acid ([1]; 30 h after inoculation): 0.45 g/L | Cell density ([1]; 30 h after inoculation): 0.73 g/L | Ethanol ([1]; 30 h after inoculation): 4.19 g/L | Fructose ([1]; 30 h after inoculation): 0 g/L | Acetic Acid ([1]; 80 h after inoculation): 0.38 g/L | Cell density ([1]; 80 h after inoculation): 0.98 g/L | Ethanol ([1]; 80 h after inoculation): 7.60 g/L | Fructose ([1]; 80 h after inoculation): 0 g/L | Acetic Acid ([1]; 96 h after inoculation): 0.31 g/L | Cell density ([1]; 96 h after inoculation): 1.07 g/L | Ethanol ([1]; 96 h after inoculation): 7.81 g/L | Fructose ([1]; 96 h after inoculation): 0 g/L | Cell density ([2]; Additional Nickel 100 μM): 0.23 g/L | Cell density ([2]; Additional Nickel 200 μM): 0.25 g/L | Cell density ([2]; Additional Nickel 300 μM): 0.28 g/L | Cell density ([2]; Additional Nickel 400 μM): 0.30 g/L | Cell density ([2]; Additional Nickel 500 μM): 0.35 g/L | Cell density ([2]; Additional Nickel 600 μM): 0.31 g/L | Cell density ([2]; Additional Nickel 700 μM): 0.37 g/L | Cell density ([2]; Additional Nickel 800 μM): 0.45 g/L | Cell density ([2]; Additional Nickel 900 μM): 0.43 g/L | Cell density ([2]; Additional Nickel 1000 μM): 0.39 g/L | Ethanol ([3]; Nickel 200 μM, 0 h): 0.18 ± 0.01 g/L | OD600 nm ([3]; Nickel 200 μM, 0 h): 0.010 ± 0.001 | Acetate ([3]; Nickel 200 μM, 30 h): 0.37 ± 0.13 g/L | Ethanol ([3]; Nickel 200 μM, 30 h): 0.18 ± 0.01 g/L | OD600 nm ([3]; Nickel 200 μM, 30 h): 0.185 ± 0.052 | Acetate ([3]; Nickel 200 μM, 54 h): 0.38 ± 0.02 g/L | Ethanol ([3]; Nickel 200 μM, 54 h): 0.33 ± 0.02 g/L | OD600 nm ([3]; Nickel 200 μM, 54 h): 0.239 ± 0.028 | Acetate ([3]; Nickel 200 μM, 102 h): 0.43 ± 0.09 g/L | Ethanol ([3]; Nickel 200 μM, 102 h): 0.33 ± 0.19 g/L | OD600 nm ([3]; Nickel 200 μM, 102 h): 0.274 ± 0.025 | Acetate ([3]; Nickel 200 μM, 127 h): 0.61 ± 0.02 g/L | Ethanol ([3]; Nickel 200 μM, 127 h): 6.69 ± 0.08 g/L | OD600 nm ([3]; Nickel 200 μM, 127 h): 0.285 ± 0.046 | Ethanol ([3]; Nickel 400 μM, 0 h): 0.18 ± 0.06 g/L | OD600 nm ([3]; Nickel 400 μM, 0 h): 0.011 ± 0.002 | Acetate ([3]; Nickel 400 μM, 30 h): 0.35 ± 0.02 g/L | Ethanol ([3]; Nickel 400 μM, 30 h): 0.33 ± 0.11 g/L | OD600 nm ([3]; Nickel 400 μM, 30 h): 0.271 ± 0.001 | Acetate ([3]; Nickel 400 μM, 54 h): 0.41 ± 0.02 g/L | Ethanol ([3]; Nickel 400 μM, 54 h): 0.75 ± 0.01 g/L | OD600 nm ([3]; Nickel 400 μM, 54 h): 0.310 ± 0.037 | Acetate ([3]; Nickel 400 μM, 102 h): 0.37 ± 0.19 g/L | Ethanol ([3]; Nickel 400 μM, 102 h): 0.86 ± 0.03 g/L | OD600 nm ([3]; Nickel 400 μM, 102 h): 0.304 ± 0.035 | Acetate ([3]; Nickel 400 μM, 127 h): 0.47 ± 0.03 g/L | Ethanol ([3]; Nickel 400 μM, 127 h): 0.89 ± 0.08 g/L | OD600 nm ([3]; Nickel 400 μM, 127 h): 0.291 ± 0.026 | Ethanol ([3]; Nickel 700 μM, 0 h): 0.20 ± 0.01 g/L | OD600 nm ([3]; Nickel 700 μM, 0 h): 0.010 ± 0.001 | Acetate ([3]; Nickel 700 μM, 30 h): 0.34 ± 0.01 g/L | Ethanol ([3]; Nickel 700 μM, 30 h): 0.27 ± 0.01 g/L | OD600 nm ([3]; Nickel 700 μM, 30 h): 0.402 ± 0.014 | Acetate ([3]; Nickel 700 μM, 54 h): 0.40 ± 0.05 g/L | Ethanol ([3]; Nickel 700 μM, 54 h): 0.84 ± 0.03 g/L | OD600 nm ([3]; Nickel 700 μM, 54 h): 0.689 ± 0.097 | Acetate ([3]; Nickel 700 μM, 102 h): 0.65 ± 0.06 g/L | Ethanol ([3]; Nickel 700 μM, 102 h): 0.86 ± 0.25 g/L | OD600 nm ([3]; Nickel 700 μM, 102 h): 0.519 ± 0.078 | Acetate ([3]; Nickel 700 μM, 127 h): 0.63 ± 0.32 g/L | Ethanol ([3]; Nickel 700 μM, 127 h): 1.01 ± 0.17 g/L | OD600 nm ([3]; Nickel 700 μM, 127 h): 0.584 ± 0.088 | Ethanol ([3]; Nickel 1000 μM, 0 h): 0.18 ± 0.01 g/L | OD600 nm ([3]; Nickel 1000 μM, 0 h): 0.009 ± 0.001 | Acetate ([3]; Nickel 1000 μM, 30 h): 0.29 ± 0.04 g/L | Ethanol ([3]; Nickel 1000 μM, 30 h): 0.44 ± 0.09 g/L | OD600 nm ([3]; Nickel 1000 μM, 30 h): 0.705 ± 0.014 | Acetate ([3]; Nickel 1000 μM, 54 h): 0.39 ± 0.02 g/L | Ethanol ([3]; Nickel 1000 μM, 54 h): 0.74 ± 0.05 g/L | OD600 nm ([3]; Nickel 1000 μM, 54 h): 1.058 ± 0.006 | Acetate ([3]; Nickel 1000 μM, 102 h): 0.62 ± 0.21 g/L | Ethanol ([3]; Nickel 1000 μM, 102 h): 0.88 ± 0.03 g/L | OD600 nm ([3]; Nickel 1000 μM, 102 h): 0.943 ± 0.002 | Acetate ([3]; Nickel 1000 μM, 127 h): 0.47 ± 0.11 g/L | Ethanol ([3]; Nickel 1000 μM, 127 h): 1.04 ± 0.02 g/L | OD600 nm ([3]; Nickel 1000 μM, 127 h): 0.981 ± 0.088

Source: patent US8354269B2 (priority 2008, dated 2013)
